Source: PubChem BioAssay (NCI)
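Five concentrations, 48 hours, 96-well plates. At the GI50, growth is halved. TGI: total growth inhibition.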

Experiments:
Experiment in all cases: NCI tumour cell line growth inhibition, 48 h
[1] = tested on: HS 578T breast
[2] = tested on: HCT-15 colon
[3] = tested on: SF-268 CNS
[4] = tested on: U251 CNS
[5] = tested on: UACC-62 melanoma
[6] = tested on: SR leukemia
[7] = tested on: M14 melanoma
[8] = tested on: SNB-75 CNS
[9] = tested on: HOP-62 NSCLC
[10] = tested on: RXF 393 renal

Structure (SMILES) | GI50 [1] | TGI [1] | GI50 [2] | TGI [2] | GI50 [3] | TGI [3] | GI50 [4] | TGI [4] | GI50 [5] | TGI [5] | GI50 [6] | TGI [6] | GI50 [7] | TGI [7] | GI50 [8] | TGI [8] | GI50 [9] | TGI [9] | GI50 [10] | TGI [10]
CC1=C(C(=O)Nc2ccc(Cl)c(Cl)c2)C(c2cccc(O)c2)NC(=S)N1 (stereo not drawn) | 9.5 µM | 24.9 µM | 21.8 µM | > 50 µM | 8.35 µM | 17 µM | 8.82 µM | 18.1 µM | 7.09 µM | 14.7 µM | 14.2 µM | 49 µM | 13.6 µM | 26.7 µM | 11.8 µM | 47.8 µM | 17.3 µM | 31.2 µM | 12.8 µM | 29.3 µM
Cc1ccc(S(=O)(=O)N2C/C(=C\c3cc(F)cc(F)c3)C(=O)/C(=C/c3cc(F)cc(F)c3)C2)cc1 | 0.513 µM | > 43.1 µM | 0.22 µM | 0.966 µM | 0.347 µM | 1.31 µM | 0.178 µM | 0.452 µM | 0.231 µM | 0.605 µM | 0.0364 µM | 0.296 µM | 0.429 µM | 1.72 µM | 1.91 µM | 5.99 µM | 1.5 µM | 4.66 µM | 0.535 µM | 1.82 µM
N=C1N=Nc2nc(C3(c4nc5n(c4O)C(=N)N=N5)Cc4ccccc4C3=O)c(O)n21 (stereo not drawn) |  | > 100 µM |  | > 100 µM |  | > 100 µM | > 100 µM | > 100 µM |  | > 100 µM |  | > 100 µM |  | > 100 µM |  | > 100 µM |  | > 100 µM |  | > 100 µM
CCN1CCN(Cc2ccc3cc(C(=O)Nc4cc(NC(=O)c5ccc6c(c5)OCCO6)ccc4F)ccc3n2)CC1 | 0.0329 µM | 0.308 µM | 0.0376 µM | 2.25 µM | 0.0742 µM | 10 µM | 0.0464 µM | 11.4 µM | 0.0575 µM | 1.19 µM | 0.0443 µM | 1.48 µM | 0.0505 µM | 11.8 µM | 0.0178 µM | 0.456 µM | 0.0617 µM | 12 µM | 0.0142 µM | 0.0729 µM
C[C@H]1[C@H](C)CC[C@]2(C(=O)O)CC[C@]3(C)C(=CC[C@@H]4[C@@]5(C)CC[C@H](OC(=O)/C=C\c6ccc(O)cc6)C(C)(C)[C@@H]5CC[C@]43C)[C@H]12 | 3.1 µM | 22.6 µM | 3.08 µM | 12.7 µM | 3.23 µM | 14.8 µM | 2 µM | 9.41 µM | 10.9 µM | 22.8 µM | 2.69 µM | 6.66 µM |  |  | 22.3 µM | 45.9 µM | 2.26 µM | 12.8 µM | 1.52 µM | 6.94 µM
O=C1C=CC(=O)N1CCCCCCCCCCN1C(=O)C=CC1=O | 16.3 µM | 56.9 µM | 10.3 µM | 25.7 µM | 15.8 µM | 30.4 µM | 17 µM | 37.8 µM | 14.8 µM | 28.2 µM | 6.88 µM | 41.2 µM | 6.9 µM | 20 µM | 11.5 µM | 24.4 µM | 16.2 µM | 31.3 µM | 3.13 µM | 11.3 µM
Cn1c2ccccc2c(=S)c2cc(NC(=O)CCCCC(=O)Nc3ccc4c(c3)c(=S)c3ccccc3n4C)ccc21 |  | > 100 µM |  | > 100 µM |  | > 100 µM |  | > 100 µM |  | > 100 µM |  | > 100 µM |  | > 100 µM |  | > 100 µM |  | > 100 µM |  | > 100 µM
COc1cccc(-c2cc(NCc3ccc4c(c3)OCO4)nc(N)n2)c1 | 0.0505 µM | 27.6 µM | 0.0533 µM | 13.9 µM | 3.29 µM | 22.9 µM | 0.0552 µM | 11.2 µM | 0.0546 µM | 18.1 µM | 0.0453 µM | 75 µM | 0.0479 µM | 1.91 µM | 0.0368 µM | 14.4 µM | 0.362 µM | 17.4 µM | 0.11 µM | 17.2 µM
COc1ccc2cc(C(=O)/C=C/c3ccccc3OC)ccc2c1 | 4.18 µM | 98.9 µM | 1.67 µM | 14.3 µM | > 20.6 µM | > 100 µM | 4.33 µM | 15.6 µM | 1.88 µM | 11.9 µM | 0.312 µM |  | 4.34 µM | 25.6 µM | 4.06 µM | > 51.6 µM | 7.51 µM | 25.6 µM | 2.54 µM | 7.63 µM
Cc1cc(Cl)ccc1Nc1nc(C(F)(F)F)ccc1C(=O)N/N=C/c1c(Cl)cccc1Cl | 0.63 µM | > 30 µM | 0.145 µM | > 100 µM | 0.354 µM | > 36.4 µM | 0.245 µM | > 70.8 µM | 0.489 µM | 6.38 µM | 0.263 µM | > 100 µM | 0.536 µM | > 100 µM | 1.34 µM | > 100 µM | 0.876 µM | > 27.2 µM | 2.04 µM | > 100 µM
O=C(Nc1cccc(-n2cc(-c3ccncc3)c(-c3ccc(O)c(Cl)c3)n2)c1)Nc1ccc(Cl)c(C(F)(F)F)c1 | 1.3 µM | 6.24 µM | 2.58 µM | 10.9 µM | 2.46 µM | 8.1 µM | 1.7 µM | 8.02 µM | 2.13 µM | 5.07 µM | 1.6 µM | 5.6 µM | 1.79 µM | 3.77 µM | 1.23 µM | 6.85 µM | 3.15 µM | 9.77 µM | 1.19 µM | 3.74 µM
COC(C(=O)[C@@H](O)[C@@H](C)O)[C@@H]1Cc2cc3cc(O[C@H]4C[C@@H](O[C@H]5C[C@@H](O)[C@H](O)C(C)O5)[C@H](O)C(C)O4)c(C)c(O)c3c(O)c2C(=O)[C@H]1O[C@H]1C[C@@H](O[C@H]2C[C@@H](O[C@H]3C[C@@H](O)[C@@H](O)C(C)O3)[C@@H](O)C(C)O2)[C@H](O)C(C)O1 (stereo partly drawn) | 0.126 µM | 12.3 µM | 6.59 µM | > 32.5 µM | 0.207 µM | > 32.5 µM | 0.121 µM | > 32.5 µM | 0.0564 µM | 0.283 µM | 0.112 µM | > 32.5 µM | 0.633 µM | 7.61 µM | 0.165 µM | 3.7 µM | 0.189 µM | > 32.5 µM | 0.202 µM | 1.01 µM
O=C1/C(=c2\c3ccccc3n3c(=O)c4ccccc4nc23)Nc2ccccc21 |  | > 85.7 µM |  | > 100 µM |  | > 100 µM |  | > 100 µM |  | > 100 µM |  | > 100 µM |  | > 100 µM |  | > 76.1 µM |  | > 100 µM |  | > 100 µM
